Results: patent US8361971B2, “Tablet formulation of ezatiostat” (Telik, Inc., priority 2010, dated 2013)

Columns and labels:
Format in all cases: physicochemical
[1] = Assay and impurities by HPLC of tablets on storage; parameters: key to Individual Impurities RRT = 0.74 / Individual Impurities RRT = 0.83 / TLK 236 RRT = 0.88 / Individual Impurities RRT = 0.94 / Individual Impurities RRT = 0.96 / Total impurities / Individual Impurities RRT = 0.80 / Individual Impurities RRT = 0.81 / Individual Impurities RRT = 0.86 / Individual Impurities RRT = 0.99: impurity content in %
Text: As used herein, “impurity” refers to one or more of: TLK 236, another polymorphic form of ezatiostat hydrochloride including without limitation form A, B, C, E, or F, and any other compound other than ezatiostat hydrochloride ansolvate, which may be identified by HPLC. TLK 236 is a monoester derived from the partial hydrolysis of ezatiostat where the phenyl glycine moiety remains esterified.
(§1) As described above, form E converts to form B simply during tableting.
(§2) Tablets of ansolvate form D, were packaged with and without desiccant (Sorb-It Cannister, 1 gram). Fifty tablets were packaged in a round, white 1500 mL bottle with a screw cap over an induction seal. Impurities were assayed by HPLC. When stored at 25° C./60% RH with desiccant for 3 months, no increase in total impurities was observed. When stored at 40° C./75% RH with desiccant for 3 months, total impurities increased only by 0.3%. When stored at 40° C./75% RH without desiccant for 3 months, total impurities still increased by 1.1%. As tabulated below, the presence of desiccant appears to further increase the stability of the ansolvate form D. Even though the dissolution rate of tablets containing polymorph D from one batch was below specification (<70%) at an initial test as well as after 3 months at 25° C./60% RH with desiccant, the subsequent batches met the required specification.

[2] = Assay and impurities by HPLC of tablets on storage; parameters: key to Individual Impurities RRT = 0.74 / TLK 236 RRT = 0.88 / Individual Impurities RRT = 0.96 / Total impurities: impurity content in %; details: 6 Month at 40° C./75% RH without desiccant, hydrochloride
[3] = Description (appearance) of tablets on storage
Description: as §2

[4] = X-ray diffraction, polymorphic form in tablets; details: hydrochloride; for X-ray Diffraction: tablets
Description: X-ray powder diffraction (XRPD) analyses were performed on a Shimadzu XRD-6000 X-ray powder diffractometer using Cu Kα radiation from a long fine focus X-ray tube, operated at 40 kV, 40 mA. The divergence and scattering slits were set at 1° and the receiving slit was set at 0.15 mm. Diffracted radiation was detected by a NaI scintillation detector. A θ-2θ continuous scan at 3°/min (0.4 sec/0.02° step) from 2.5°-40° 2θ was used. A silicon standard was analyzed to check alignment of the instrument. Data were collected and analyzed using XRD-6000 v.4.1 software.
Stress experiments: solids were stressed under different temperature and/or relative humidity (RH) environments for a measured time period. Specific RH values were achieved by placing the sample inside sealed chambers containing saturated salt solutions. Samples were analyzed by XRPD immediately after removal from the stress environment.
as §1, §2

[5] = Water content of tablets on storage; details: hydrochloride
Description: Karl Fischer analyses for water determination were performed on a Mettler Toledo DL39 Karl Fischer titrator. About 10-15 mg of sample was placed in the KF titration vessel containing approximately 100 mL of Hydranal®—Coulomat AD reagent and mixed for 60 seconds to ensure dissolution. The dissolved sample was then titrated by means of a generator electrode which produces iodine by electrochemical oxidation. […]
as §2

[6] = Tablet dissolution (Q at 45 min); details: tablets, hydrochloride
Text: Without being bound by theory, a higher dissolution rate relates to a higher amount of the active agent in the gastric fluid, which in turn relates to higher bioavailability of the active agent. A high bioavailability is desired, for example and without limitation, for reducing inter patient variability of drug exposure for a orally administered agent such as ezatiostat hydrochloride. […] The aqueous solubility can be measured in a variety of aqueous solvents, including without limitation, water, 0.9% aqueous NaCl, 5% dextrose for injection, phosphate buffered saline, and generally aqueous solutions having a pH of less than about 5. Such solvents may include suitable buffers and other salts. […]
as §2

[7] = 3 Month at 40° C./75% RH without desiccant
[8] = 3 Month at 40° C./75% RH without desiccant, hydrochloride
[9] = 6 Month at 40° C./75% RH without desiccant, hydrochloride
[10] = 6 Month at 40° C./75% RH without desiccant

Compound: CCOC(=O)[C@@H](N)CCC(=O)N[C@@H](CSCc1ccccc1)C(=O)N[C@@H](C(=O)OCC)c1ccccc1.Cl [Polymorph Form E, ezatiostat hydrochloride]
- Individual Impurities RRT = 0.59/0.62 [1, 7]: 0.07
- Individual Impurities RRT = 0.86 [1, 7]: 0.06
- Assay (HPLC) [1, 8]: 90.3 % Label Claim
- Individual Impurities RRT = 0.74 [1, 8]: 0.42
- Individual Impurities RRT = 0.80 [1, 8]: 0.16
- Individual Impurities RRT = 0.81 [1, 8]: 0.14
- Individual Impurities RRT = 0.83 [1, 8]: 0.31
- Individual Impurities RRT = 0.94 [1, 8]: 0.08
- Individual Impurities RRT = 0.96 [1, 8]: 0.19
- Individual Impurities RRT = 0.99 [1, 8]: 0.20
- TLK 236 RRT = 0.88 [1, 8]: 3.45
- Total impurities [1, 8]: 5.1
- Individual Impurities RRT = 0.80 [1, 9]: 0.41
- Individual Impurities RRT = 0.81 [1, 9]: 0.17
- Individual Impurities RRT = 0.83 [1, 9]: 0.16
- Individual Impurities RRT = 0.99 ([1]; Initial): 0.12
- Assay (HPLC) ([1]; Initial, hydrochloride): 93.7 % Label Claim
- Individual Impurities RRT = 0.74 ([1]; Initial, hydrochloride): 0.38
- Individual Impurities RRT = 0.83 ([1]; Initial, hydrochloride): 0.34
- Individual Impurities RRT = 0.96 ([1]; Initial, hydrochloride): 0.20
- TLK 236 RRT = 0.88 ([1]; Initial, hydrochloride): 0.42
- Total impurities ([1]; Initial, hydrochloride): 1.5
- Assay (HPLC) [2]: 84.6 % Label Claim
- Individual Impurities RRT = 0.59/0.62 [2]: 0.15
- Individual Impurities RRT = 0.74 [2]: 0.51
- Individual Impurities RRT = 0.96 [2]: 0.24
- TLK 236 RRT = 0.88 [2]: 4.66
- Total impurities [2]: 6.3
- Description [3, 7]: Off-white
- Description [3, 9]: Brown round
- Description ([3]; Initial): White round
- polymorphic conversion on storage ([4]; 40° C. and 75% RH without a desiccant, form D 6 months, form E 3 months, listed as solvate form E): transforms into a mixture of form B and the ansolvate form D within 3 months
- polymorphic conversion during tablet manufacture ([4]; during tablet manufacture, listed as solvate form E): transforms almost entirely to form B crystals merely during tablet manufacture
- X-ray Diffraction [4, 7]: Polymorph B
- X-ray Diffraction [4, 10]: Polymorph B
- X-ray Diffraction ([4]; Initial): Polymorph B
- Water Content [5, 7]: 2.3%
- Water Content [5, 10]: 2.3%
- Water Content ([5]; Initial): 3.5%
- Dissolution, Mean at 45 min [6, 7]: Mean = 33 % of label claim
- Dissolution, Mean at 45 min [6, 10]: Mean = 19 % of label claim
- Dissolution, Mean at 45 min ([6]; Initial): Mean = 46 % of label claim
